2 compounds from paper PMC10816808, “Enhancement of the Antitumor and Antimetastatic Effect of Topotecan and Normalization of Blood Counts in Mice with Lewis Carcinoma by Tdp1 Inhibitors—New Usnic Acid Derivatives” (International Journal of Molecular Sciences, 2024) can be followed below.

Where only a bound is given, the exact number is not on record here.

Series [1] is described as follows: MTT cytotoxicity test, T98G. Particulars: human, T98G cells (glioblastoma), read-out: semitoxic concentration (CC50), T98G. Type of series: cell-based. An excerpt: (§1) Compounds 6 and 8 with a bromophenol residue in the enamine fragment have a weak or moderate effect on cell survival (Table 1 and Supplementary Figure S1).
(§2) Cytotoxicity of the compounds against human tumor cell lines: HeLa (cervical cancer), HCT-116 (colorectal cancer), A-549 (lung cancer), MCF-7 (breast cancer), T98G (glioblastoma), HepG2 (hepatocarcinoma), and nontumor cell lines: MRC-5 (lung fibroblasts) and HEK293A (human embryonic kidney) was examined using the MTT test. HCT-116 and MRC-5 cell lines were provided by the Cell Culture Bank of the State Research Center for Virology and Biotechnology Vector, Novosibirsk, Russia. A-549, MCF-7, and T98G cell lines were obtained from the Russian Cell Culture Collection (RCCC) Institute of Cytology RAS (St. Petersburg, Russia). HEK293A cells were purchased (ThermoFisher Scientific, Waltham, MA, USA).
(§3) The cell culture medium DMEM medium (Invitrogen, Carlsbad, CA, USA) contained 10% fetal bovine serum (FBS) (Invitrogen), penicillin (100 units/mL), and streptomycin (100 µg/mL). Cells were seeded into 96-well plates at 5000 cells per well and grown at 37 °C and 5% CO2 in a humid atmosphere. At 30–50% confluence, the tested compounds were added to the medium to a final DMSO content of 1%. Control wells contained 1% DMSO. To determine the cytotoxicity of Tdp1 inhibitors, the cells were treated with compounds with concentrations ranging from 1 to 100 µM for 72 h at 37 °C […]. All measurements were repeated a minimum of twice.
A general note: Formazan colour is commonly taken as a measure of viable cells.

The nature of series [2]: MTT cytotoxicity test, HCT-116. Type of series: cell-based. Particulars: human, HCT-116 cells (colorectal cancer), read-out: semitoxic concentration (CC50), HCT-116.
Excerpt: as §1, §2, §3

Series [3] can be described thus: MTT cytotoxicity test, MRC-5. The conditions noted are these: human, MRC-5 cells (lung fibroblasts, nontumor), read-out: semitoxic concentration (CC50), MRC-5. Format: cell-based.
Excerpt: as §1, §2, §3

The nature of series [4]: MTT cytotoxicity test, HEK293A. Type of series: cell-based. The conditions noted are these: human, HEK293A cells (embryonic kidney, nontumor), read-out: semitoxic concentration (CC50), HEK293A.
Excerpt: as §1, §2, §3

The next series addresses T1, Tdp1 (Homo sapiens, UniProt Q9NUW8).
T1 construct: Purified Tdp1 (1.5 nM) triggered the reaction
Put plainly: Tdp1 inhibition, fluorescent oligonucleotide biosensor. Format: biochemical. Particulars: purified Tdp1 1.5 nM, 50 nM biosensor; read-out: Concentration of half-maximal inhibition of Tdp1 (IC50). An excerpt:
The inhibitory properties of the compound on the purified Tdp1 was studied using a technique developed previously by our team. A 16-mer single-stranded oligonucleotide carrying a fluorophore at the 5′-end and a quencher at the 3′-end was used as a biosensor. When within the Förster radius, the quencher suppressed the fluorescence of the fluorophore. The quencher was removed by Tdp1, resulting in fluorescence emission. Usnic acid derivatives with a bromophenol residue in the enamine fragment (compounds 6 and 8) inhibit the enzyme with half-maximal inhibition concentrations (IC50) an order of magnitude worse than derivatives with a di-tert-butyl fragment (compounds 5 and 7).
An oligonucleotide 5′-[FAM] AAC GTC AGGGTC TTC C [BHQ1]-3′ synthesized in the laboratory Laboratory of Nucleic Acids Chemistry at the Institute of Chemical Biology and Fundamental Medicine (Novosibirsk, Russia) was used as a biosensor. Removal of the quencher (BHQ1) due to enzyme activity leads to increased fluorescence of FAM. The reaction was carried out at different concentrations of inhibitors (1.5% of DMSO, Sigma, St. Louis, MO, USA, in the control samples). The reaction mixtures contained Tdp1 buffer (50 mM Tris-HCl pH 8.0, 50 mM NaCl, and 7 mM β-mercaptoethanol), 50 nM biosensor, and an inhibitor being tested. Purified Tdp1 (1.5 nM) triggered the reaction.
The fluorescence was measured using POLARstar OPTIMA fluorimeter (BMG LABTECH, GmbH, Ortenberg, Germany). The values of IC50 were determined in minimum three independent experiments and were calculated using embedded software MARS Data Analysis 2.0 (BMG LABTECH, GmbH, Ortenberg, Germany).

The nature of series [5]: MTT cytotoxicity test, HeLa. Particulars: human, HeLa cells (cervical cancer), read-out: semitoxic concentration (CC50), HeLa. Format: cell-based.
Excerpt: as §1, §2, §3

In series [6] the test system is various types of cultured cells. Put plainly: MTT test, panel of cultured cell lines. The conditions noted are these: at concentrations up to 100 μM; wide panel of tumor and non-cancerous cell lines. Type of series: cell-based.
Excerpt: as §1, §2
The cell culture medium DMEM medium (Invitrogen, Carlsbad, CA, USA) contained 10% fetal bovine serum (FBS) (Invitrogen), penicillin (100 units/mL), and streptomycin (100 µg/mL). Cells were seeded into 96-well plates at 5000 cells per well and grown at 37 °C and 5% CO2 in a humid atmosphere. At 30–50% confluence, the tested compounds were added to the medium to a final DMSO content of 1%. Control wells contained 1% DMSO. […]

Series [7] is described as follows: Topotecan cytotoxicity with Tdp1 inhibitor (MTT), HEK293A. Type of series: cell-based. Particulars: human, HEK293A cells (embryonic kidney, nontumor); topotecan alone or in the presence of 5 µM Tdp1 inhibitor.
Excerpt: (§4) Tdp1 inhibitors combined with topotecan dramatically reduce tumor metastasis. Usnic acid derivatives of the enamine and hydrazonothiazole series turned out to be promising sensitizers of the action of topotecan both on cultured cell lines and on mouse tumors in vivo [30, 32]. We studied the ability of the usnic acid derivatives to sensitize the effects of topotecan on the same panel of cell lines. We used two non-cancerous cell lines MRC-5 and HEK293A, including previously obtained HEK293A Tdp1 knockout cells (for compound 7), and cancerous cell lines HeLa, HCT-116, A-549, MCF-7, T98G. We found the most pronounced and reliable sensitizing effect on cancerous cell lines HeLa, HCT-116, A-549, MCF-7 only for compound 7 (Table 2 and Figures S2 and S3).
as §2, with “HEK293A cells were purchased (ThermoFisher Scientific, Waltham, MA, USA).” left out

A short description of series [8]: Topotecan cytotoxicity with Tdp1 inhibitor (MTT), MRC-5. Type of series: cell-based. Particulars: human, MRC-5 cells (lung fibroblasts, nontumor); topotecan alone or in the presence of 5 µM Tdp1 inhibitor.
Excerpt: as §4
as §2, with “HEK293A cells were purchased (ThermoFisher Scientific, Waltham, MA, USA).” left out

The test system of the next series is A-549. Put plainly: Topotecan cytotoxicity with Tdp1 inhibitor (MTT), A-549. Type of series: cell-based. The conditions noted are these: Homo sapiens, A549; topotecan alone or in the presence of 5 µM Tdp1 inhibitor.
Excerpt: as §4
as §2, with “HEK293A cells were purchased (ThermoFisher Scientific, Waltham, MA, USA).” left out

A further series has as its system HCT-116. Put plainly: Topotecan cytotoxicity with Tdp1 inhibitor (MTT), HCT-116. Type of series: cell-based. The conditions noted are these: Homo sapiens, topotecan alone or in the presence of 5 µM Tdp1 inhibitor.
Excerpt: as §4
as §2, with “HEK293A cells were purchased (ThermoFisher Scientific, Waltham, MA, USA).” left out

T1 sequence (Q9NUW8 whole entry): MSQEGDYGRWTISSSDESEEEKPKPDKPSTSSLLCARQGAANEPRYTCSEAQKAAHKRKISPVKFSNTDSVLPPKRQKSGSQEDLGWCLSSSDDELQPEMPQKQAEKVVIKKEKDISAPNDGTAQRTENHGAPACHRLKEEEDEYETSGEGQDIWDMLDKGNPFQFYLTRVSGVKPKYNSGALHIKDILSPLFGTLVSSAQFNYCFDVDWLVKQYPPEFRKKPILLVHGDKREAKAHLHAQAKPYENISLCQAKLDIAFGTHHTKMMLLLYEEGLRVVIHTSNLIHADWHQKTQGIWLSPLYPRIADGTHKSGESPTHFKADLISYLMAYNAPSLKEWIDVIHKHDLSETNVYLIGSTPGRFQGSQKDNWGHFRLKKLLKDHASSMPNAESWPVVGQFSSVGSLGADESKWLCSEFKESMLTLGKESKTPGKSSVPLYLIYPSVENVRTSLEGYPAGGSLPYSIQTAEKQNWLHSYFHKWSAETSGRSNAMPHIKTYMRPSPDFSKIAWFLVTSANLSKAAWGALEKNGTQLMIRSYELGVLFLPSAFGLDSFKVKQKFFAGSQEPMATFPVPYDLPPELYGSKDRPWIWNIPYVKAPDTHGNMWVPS

For `C/C(NCCCc1cc(C(C)(C)C)c(O)c(C(C)(C)C)c1)=C1\C(=O)C=C2Oc3c(-c4csc(N/N=C/c5ccc(Br)cc5)n4)c(O)c(C)c(O)c3[C@@]2(C)C1=O` [Compound 7, (4E)-10-{2-[(E)-2-[(4-bromophenyl)methylidene]hydrazin-1-yl]-1,3-thiazole-4-yl}-4-(1-{[3-(3,5-di-tret-butyl-4-hydroxyhenyl)propyl]amino}ethylidene)-11,13-dihydroxy-2,12-dimethyl-8-oxatricyclo [7.4.0.02,7]trideca-1(13),6,9,11-tetraen-3,5-dione], the CC50 at 72 h in series [1], in [2], in series [3], in [4] and in series [5] was greater than 100000 nM each time. Besides, the IC50 at Tdp1 worked out at 120 ± 10 nM. In series [6], the “living cells (metabolic activity, MTT)” value is given as “more than 50%”.

On to `CC[C@@]1(O)C(=O)OCc2c1cc1n(c2=O)Cc2cc3c(CN(C)C)c(O)ccc3nc2-1` [Tpc, topotecan], for which the CC50 in [7] was 33 nM; in [8], greater than 10000 nM; in the series on A-549, 1500 nM; in the series on HCT-116, 810 nM.
